The text below walks through data of a melting point compilation (Tetko et al.; mined from patent text by program, amines drawn as free bases though some values may be those of a salt).

Some results are limits rather than exact numbers.

For the compound `O=C(c1ccccc1)c1ccc(C(=O)N2Cc3ccccc3CCc3ccccc32)cc1`, the melting point (commonly the temperature of the solid-liquid transition) was 89 to 92 °C. In turn, `COC12CC(C)(c3nc(-c4cncc(Br)c4)no3)CN(C)C1Cc1cn(C)c3cccc2c13` (stereo not given) had a melting point of 185 to 189 °C. To `CCOC(=O)C1C(=O)C=C(c2ccccc2)N=C1c1ccccc1` (stereo not given) belongs 177 to 179 °C. As for `CC1CNCc2c1[nH]c1cnc3cc(Cl)ccc3c21` (stereo not given), the figure is 286 to 287 °C; as for `CCN(CC)CCCCC(=O)c1ccc2c(c1)Cc1cc(C(=O)CCCCN(CC)CC)ccc1-2`, 78 to 80 °C; as for `O=C1c2cccc(NCCc3ccc(O)cc3)c2C(=O)c2c(NCCc3ccc(O)cc3)cccc21`, 181 to 182 °C.

As to `CCC(CC)N1CCNc2c1cc(C)nc2Oc1c(C)cc(C)cc1C`, the melting point was 138 to 140 °C.

In turn, `CCc1cc(C(=O)c2ccccc2Cl)c(-n2c(C)nnc2CNC(=O)Nc2cccc(C(=O)O)c2)s1` returned a melting point of 178 to 180 °C. As for `CCCCn1c(=O)c(C#N)c(N2CCN(C(=O)c3cccs3)CC2)c2cccnc21`, the figure is 143 °C; as for `CCN(CC)c1nc(NCCCCO)nc(Nc2ccc3cc(-c4ccccc4)c(=O)oc3c2)n1`, 124 to 126 °C. For the compound `CC1(C)C(C=CC(=O)Cl)C1C(=O)OC(C#N)c1cccc(Oc2ccccc2)c1` (stereo not given), the melting point stood at 86 °C. Turning to `O=C(O)c1cnc2ccc(Cl)cc2c1-c1ccccc1`, the melting point was in the range of 269 to 270 °C. To `COc1ccc(CC(C)=O)cc1S(=O)(=O)Cl` belongs 80 to 81 °C. In turn, `CSCCn1nc(-c2ccc(OCCCC(F)(F)F)cc2)oc1=O` had a melting point of 105 °C. To `CCN1C(=O)C(=O)N(c2cc(Cl)ccc2C)C1=S` belongs 173 to 174 °C; to `COc1ccc(-c2cc3ccc(OC)cc3c(=S)[nH]2)cc1`, 188 to 190 °C; to `O=C(Nc1ccc(-c2ncc(-c3ccc(NC(=O)C4CCCCCC4)cc3)[nH]2)cc1)c1c(F)c(F)c(F)c(F)c1F`, 300 to 302 °C. Compound `O=S1OCCN1c1cc(-c2ccnc(Nc3cccc(Cl)c3)n2)ccn1` (stereo not given) showed a melting point of 202 to 203 °C. To `CC(C)=CCOc1ccc2c(=O)c(C)c(-c3ccccc3)oc2c1C(=O)C=Cc1ccccc1` belongs 83 to 84 °C. For the compound `CNC1Oc2cc(Cl)cc(-c3ccc(Cl)cc3C)c2O1` (stereo not given), the melting point was greater than 250 °C. As for `CCCCOc1c(-c2cc(C=CC(=O)O)ccc2OC)cc(C(C)(C)C)cc1C(C)(C)C`, the figure is 204 to 206 °C; as for `C[C@H](CCC[C@@H](C)[C@H]1C(=O)C[C@H]2[C@@H]3CC=C4C[C@@H](O)CC[C@]4(C)[C@H]3CC[C@]12C)CN1C(=O)c2ccccc2C1=O`, 55 °C; as for `CCn1c(C(F)(F)F)nn(-c2cc(N)c(C(N)=S)cc2F)c1=O`, 161 °C. `CC(C)(C)c1cc(SC(=O)NN)cc(C(C)(C)C)c1O` came in with a melting point of 130 to 131 °C.

Turning to `Cc1cc(C=O)ccc1-c1ccccc1C(F)(F)F`, the melting point was 127 to 130 °C. Consider `O=Cc1cc(N2CCN(Cc3ccccc3)CC2)ccc1O`, for which the melting point was 101 to 103 °C. For the compound `CCOC(=O)C1=C(CCCc2ccccc2)NC(C)=C(C(=O)OC)C1c1cccc([N+](=O)[O-])c1` (stereo not given), the melting point was in the range of 125 to 127 °C. As to `O=Cc1cccc2c(Br)c3ccccc3cc12`, the melting point lay in the range of 134 to 136 °C.

Compound `Cc1cc2cc(C3CCN(C(=O)C4CC4)CC3)oc2cc1C` returned a melting point of 80 to 83 °C. As for `Oc1c(S)cc(I)cc1I`, the figure is 178 to 180 °C; as for `N#Cc1nn(-c2c(Cl)cc(C(F)(F)F)cc2Cl)cc1C1CC1(Br)Br` (stereo not given), 121 to 123 °C.

`CCN(C(=O)N1CCN(c2cc(C)cc(C)c2)CC1)c1nc2ccccc2nc1OC` registered a melting point of 145 to 147 °C. As for `O=C(CO)N1CCN(C(=O)CO)CC1`, the figure is 169 to 173 °C; as for `O=C(NCCN1CCOCC1)Nc1nc2ccc(OCc3c(F)cccc3F)cc2s1`, 219 °C. To `CN1CCN(c2cc3c(cc2F)c(=O)c(C(=O)O)cn3NCC=O)CC1` belongs 252 to 253 °C; to `CC(CCCO)C1CCC2C3CC=C4CC(OC5CCCCO5)CCC4(C)C3CCC12C` (stereo not given), 130 to 131 °C; to `CCCc1c(OCCCOc2ccc(C(=O)O)cc2)ccc(C(C)=O)c1O`, 180 to 183 °C.

On to `O=C(O)c1ccc2cc([N+](=O)[O-])c3ccc(C(=O)O)nc3c2n1`, for which the melting point lay within 218 to 220 °C. To `Cc1cc2ccccn2c1C(=O)c1ccc2c(c1)c(=O)c(C(=O)O)cn2C` belongs 308 °C; to `CCOC(=O)c1sc(N2CCN(CC3CC3(F)F)C2=O)nc1C` (stereo not given), 146 to 148 °C.

`Cc1cc2c(-c3ccccc3N)nc(N3CCNCC3)nc2s1` showed a melting point of 232 to 236 °C. As to `CC(C)Cn1cnc2c(N)nc3cc(Br)ccc3c21`, the melting point was in the range of 218 to 220 °C. To `CCNC(=O)c1c(Cl)cccc1[Si](C)(C)c1ccccc1` belongs 89 to 91 °C; to `COc1ccc(CNC(=O)c2cc3c(=O)n(C[C@H]4CC[C@H](C(=O)O)CC4)cnc3cn2)cc1`, 232 to 233 °C; to `FC(F)(F)c1ccc2nc(-c3csc(Nc4ncccc4Cl)n3)[nH]c2c1`, 207 to 208 °C. To `COC(=O)c1ccccc1OCC(O)CNC(C)(C)CNC(N)=O` (stereo not given) belongs 62 °C. `CCCc1nc2c(N)nc3cc(OCCn4cccc4)ccc3c2s1` gave a melting point of 158 to 160 °C.

In turn, `CC(=O)N1CCC(C(=O)Nc2ccccc2Oc2ccc(Cl)cc2)CC1` returned a melting point of 195 to 196 °C. To `Cc1ccc(S(=O)(=O)n2ccc3cc(F)ccc32)cc1` belongs 106 to 108 °C; to `CN(Cc1ccccc1)S(=O)(=O)CC#N`, 68 to 70 °C. With `CCC(C)n1ncn(-c2ccc(N3CCN(c4ccc(OC)cc4)CC3)c(Br)c2)c1=O` (stereo not given), the melting point came out at 145 °C.

On to `Cc1cccc(-c2ccc3c(c2)c(C(=O)C(=O)NCC(=O)O)cn3Cc2ccc(C(C)(C)C)cc2)c1`, for which the melting point fell in the range of 108 to 109 °C. As for `O=C1NC(C(=O)N2CC(O)CC2C(=O)O)CSCCCCCCCC1CS` (stereo not given), the figure is 124 to 130 °C; as for `CC1(C)Cc2cc(C3=NNC(=O)C4CC34)ccc2NC1=O` (stereo not given), 275 to 277 °C; as for `CC(C)(C)C(=O)C(Br)C(Br)C(=O)C(C)(C)C` (stereo not given), 107 to 109 °C. As to `CCC(=O)CNC(=O)c1cc(OC)cc(Oc2cccc(C(F)(F)F)c2)n1`, the melting point is 100 to 103 °C. To `COC(=O)c1csc(-c2cc3ccccc3n2C)n1` belongs 124 to 127 °C. Compound `CC1(C)COc2ccc(C(=O)O)cc21` returned a melting point of 171 to 173 °C. In turn, `COC(=O)c1cc(NS(C)(=O)=O)ccc1F` returned a melting point of 135 to 137 °C.

For the compound `C#CCN(Cc1ccc2nc(Cl)c(N)cc2c1)c1ccc(C(=O)N[C@@H](CCC(=O)O)C(=O)O)c(F)c1`, the melting point lay within 107 to 110 °C. As for `Cc1nc(-c2ccc(C(F)(F)F)cc2)sc1C(=O)N[C@H](C)[C@](O)(Cn1cncn1)c1ccc(F)cc1F`, the figure is 79 to 82 °C; as for `O=C(Nc1ccc(Nc2ccccc2)cc1)OCCc1ccc([N+](=O)[O-])cc1`, 146 to 148 °C. As for `CNc1ncc2c(n1)N(C1CCC(C(=O)O)CC1)C(=O)N(c1c(F)c(OC)cc(OC)c1F)C2` (stereo not given), the figure is 148 °C; as for `COc1cccc(OC)c1-c1cc(C(=O)NC2(C(=O)O)C3CC4CC(C3)CC2C4)nn1-c1cccc2ncccc12` (stereo not given), greater than 260 °C. The compound `Cc1nc2c(O)c(CCC(=O)c3ccc(F)cc3)c(C(=O)N(C)C)cc2n1C` showed a melting point of 248 to 249 °C. To `O=C(Nc1cc(Cl)cc(Cl)c1)c1ccc(Cl)cc1O` belongs 255 to 256 °C; to `CCOC(=O)c1csc(N2CCSCC2)n1`, 99 to 100 °C. Turning to `CN1C(=O)C2(COc3cc4c(cc32)OCCO4)c2c(NC(=O)NC3CCCCC3)cccc21` (stereo not given), the melting point lay within 175 to 177 °C.

As for `O=C(NC(=S)Nc1ccccc1-c1ccc(F)cc1)c1ccccc1`, the melting point lay in the range of 123 to 124 °C. For the compound `COCCNC(=O)c1ccc(C)c(-n2c(C)cc(OCc3ccc(F)cc3CNC(=O)Nc3cc(C(C)(C)C)nn3-c3ccc(Cl)c(O)c3)c(Cl)c2=O)c1`, the melting point fell in the range of 186 to 187 °C.

As to `CC1CCN(c2ccc([N+](=O)[O-])cc2C(=O)c2ccccc2Cl)CC1`, the melting point was found to be 84 °C. The compound `CC(CCCCCC(C)NC(=O)c1ccc(OC(F)(F)F)cc1)NC(=O)c1ccc(OC(F)(F)F)cc1` (stereo not given) came in with a melting point of 156 to 160 °C. Take `NCCOCn1cnc2c(N)ncnc21`: the melting point is 170 to 171 °C. As for `Cc1nc(NC(=O)c2cc[nH]c(=O)c2)sc1C(=O)NCc1ccccc1`, the figure is 290 to 292 °C; as for `CCOC(=O)C=C(N)C(C)(C)OC(N)=O`, 109 to 111 °C; as for `O=C(O)c1cc(Br)cc([N+](=O)[O-])c1NCc1ccccc1Cl`, 159 to 161 °C.

Compound `Cc1cc2cc(CN3CCC(CC(=O)N4CCCCC4)CC3)cnc2cc1NC(=O)c1ccc(-c2ccc(F)cc2)cc1` showed a melting point of 216 °C.

`Clc1ccc2nc(Cl)c3[nH]c4ccccc4c3c2c1`: the melting point lay in the range of 265 to 266 °C. To `Cc1c(NC(=O)c2ccc(OC[C@@H]3CCCO3)cc2F)ccc2cc(CNCC(C)(C)O)[nH]c12` belongs 148 to 149 °C; to `OC(CNC1CCC1)c1cc(C(F)(F)F)nc2c(C(F)(F)F)cccc12` (stereo not given), 145 °C; to `COCCNCCC(=O)Nc1nc(-c2ccccc2)c(-c2ccc(=O)n(C(C)C)n2)s1`, 167 to 168 °C.

The compound `OCC1OC(n2cnc3c(NC4CCN(Cc5ccccc5)CC4)ncnc32)C(O)C1O` (stereo not given) showed a melting point of 176 to 182 °C.

As to `CC(C)(C)c1nc(Nc2nc(C(=O)O)cs2)nc(C(C)(C)C)c1O`, the melting point lay in the range of 251 to 253 °C.

For the compound `Cc1cc2c(s1)Nc1ccccc1N=C2N1CCN(C)[C@@H](CCc2ccccc2)C1`, the melting point lay in the range of 87 to 91 °C.

In turn, `CC1c2cc(Cl)ccc2-c2ccc(Cl)cc21` yielded a melting point of 110 to 112 °C.
